Results: patent publication US8691528B2, “Cell penetrating peptide” (Mitsubishi Tanabe Pharma Corporation, priority 2005, dated 2014)

Legend:
Assay type in all cases: cell-based
[1] = system: CHO cells, HeLa cells, and Jurkat cells; experiment: Confocal microscopic analysis of intracellular translocation of fluorescence-labeled peptides; conditions: for capability of intracellular translocation compared with KSH2: FITC-labeled peptides in CHO, HeLa, and Jurkat cells; for intracellular translocation compared with KSH2: FITC-labeled peptide
From the text: With the PTD derived from HIV TAT protein shown by SEQ ID NO:50 in the sequence listing as the positive control (in FIG. 1 to FIG. 3, denoted by “Positive” or “TAT”), and a mutant of the TAT-derived PTD shown by SEQ ID NO:51 in the sequence listing, reported by Ulo Langel et al. (Cell-Penetrating Peptides: Processes and Applications, Series: Pharmacology and Toxicology: Basic and Clinical Aspects Volume:3, 2002), as the negative control (in FIG. 1, denoted by “Negative”), the peptides of the 11 sequences selected in Example 1-1 were evaluated.
The peptides of the 11 sequences selected in Example 1-1 were synthesized by the solid phase method, and fluorescently labeled by coupling 5,6-Carboxyfluorescein to the N-terminus of each peptide. Furthermore, the peptides were purified by HPLC to obtain a purity of 70% or more. Subsequently, each fluorescently labeled peptide was dissolved in 10% Dimethyl Sulfoxide (DMSO) to obtain 1 mM (hereinafter referred to as peptide solution).
(§1) Three kinds of cells were used for incorporating the peptides: CHO cells (ATCC NO. CCL-61), HeLa cells, and Jurkat cells. 10^4 CHO cells and HeLa cells and 10^5 Jurkat cells were separately inoculated to a 96-well plate, and cultured for 2 or 3 days. Subsequently, when the cells became confluent, each peptide solution was added to each type of cell, and the cells were incubated for 1 hour. After each type of cell was washed with PBS three times, 100 μL of 0.25% trypsin-1 mM EDTA solution was added, and trypsinization was performed at room temperature for 5 minutes. After 400 μL of PBS (10% FCS) was added to neutralize the trypsin, the cells were washed with 1 mL of HBSS (Hanks' Balanced Salt Solution/produced by Invitrogen) three times. After the washing, the cells were suspended in 50 μL of HBSS and analyzed using a confocal microscope. Measurements and analysis were performed using a confocal differential interference laser microscope system (Bio-Rad, Radience2100/Green He-Ne, 488 nm, microscope: Nikon, ECLIPSE E600).
Of the novel PTD sequences found in Example 5, the KSH2 peptide is highly capable of translocating eGFP into cells; an attempt was made to modify the KSH2 peptide. The KSH2-1 to KSH2-4 peptides (SEQ ID NOS:44 to 47 in the sequence listing) were synthesized, fluorescently labeled, purified and dissolved in the same manner as Example 1-2, a test of translocation into CHO cells was performed, and confocal microscopic analysis was performed.
First, two cases were examined: two cysteines were substituted with alanine (KSH2-1) or with tryptophan (KSH2-2). FITC-labeled peptides were synthesized, and their intracellular translocation efficiencies were examined using CHO, HeLa, and Jurkat cells (FIG. 21, the peptide addition concentration was 50 μM, 25 μM or 12.5 μM).

[2] = system: Jurkat cells; experiment: Confocal microscopic analysis of intracellular translocation of synthetic peptides in Jurkat cells
Description: as §1
In Jurkat cells as well, intracellular translocation experiments of synthetic peptides of modified PTD sequences were performed by confocal microscopic analysis.

[3] = system: CHO cells; experiment: Test of translocation of fluorescence-labeled peptides into CHO cells (FACS and confocal microscopic analysis); conditions: for contribution of the alanine-substituted amino acid to the intracellular translocation: comprehensive alanine substitution on the basis of KSH1-1
Description: Each peptide solution, adjusted to 1 mM, was diluted with a medium to three levels, 100 μM, 50 μM, and 25 μM, and added to cells. Three kinds of cells were used: CHO cells, HeLa cells, and Jurkat cells. After each peptide solution was added, the cells were incubated for 1 hour. After the cells were washed with PBS three times, 100 μL of 0.25% trypsin-1 mM EDTA solution was added, and trypsinization was performed at room temperature for 5 minutes. After 400 μL of PBS (10% FCS) was added to stop the trypsinization, the cells were washed with 1 mL of HBSS three times. After the washing, the cells were suspended in 500 μL of PBS (10% FCS) and subjected to flowcytometry (hereinafter, FACS) analysis using FACS Calibur (Becton Dickinson).
Each peptide was synthesized, fluorescently labeled, purified and dissolved in the same manner as Example 1-2, a test of translocation into CHO cells was performed, and an evaluation was performed by confocal microscopic analysis and FACS. FACS analysis was performed in the same manner as Example 1-3. For the KSH1 peptide and modified PTD sequences, i.e., KSH1-1 to KSH1-9 peptides (SEQ ID NOS:1 to 9 in the sequence listing), fluorescence intensities determined by FACS analysis are shown in FIG. 6. The peptide addition concentrations were 50 μM, 25 μM, 12.5 μM and 6.5 μM.
To determine which amino acids are important to the intracellular translocation, comprehensive alanine substitution was performed on the basis of KSH1-1 to design KSH1-11 (SEQ ID NO:11 in the sequence listing) to KSH1-23 (SEQ ID NO:22 in the sequence listing) and KSH1-35 (SEQ ID NO:32 in the sequence listing) (FIG. 7). Each peptide was synthesized, fluorescently labeled, purified and dissolved in the same manner as Example 1-2, a test of translocation into CHO cells was performed, and an evaluation was performed by confocal microscopic analysis and FACS. FACS analysis was performed in the same manner as Example 1-3. For KSH1 and modified PTD sequences, i.e., KSH11-11 to 23 and KSH1-35, fluorescence intensities determined by FACS analysis are shown in FIG. 8. The peptide addition concentrations were 50 μM, 25 μM, 12.5 μM and 6.5 μM.
Each peptide was synthesized, fluorescently labeled, purified and dissolved in the same manner as Example 1-2, a test of translocation into CHO cells was performed, and an evaluation was performed by confocal microscopic analysis and FACS analysis. FACS analysis was performed in the same manner as Example 1-3. For KSH1 and modified PTD sequences, i.e., KSH11-24 to 1-26 and KSH1-28 to 1-30, fluorescence intensities determined by FACS analysis are shown in FIG. 10. The peptide addition concentrations were 50 μM, 25 μM, 12.5 μM and 6.5 μM.
Each peptide was synthesized, fluorescently labeled, purified and dissolved in the same manner as Example 1-2, a test of translocation into CHO cells was performed, and an evaluation was performed by confocal microscopic analysis and FACS analysis. FACS analysis was performed in the same manner as Example 1-3. For KSH1 and modified PTD sequences, i.e., KSH1-27, KSH1-33, KSH1-34 and KSH1-36, fluorescence intensities determined by FACS analysis are shown in FIG. 12. The peptide addition concentrations were 50 μM, 25 μM, 12.5 μM and 6.5 μM.
Each peptide was synthesized, fluorescently labeled, purified and dissolved in the same manner as Example 1-2, and an intracellular translocation test in CHO cells was performed by FACS analysis. Used for positive control were a PTD sequence derived from HIV TAT ([…] in the sequence listing) and the KSH1 peptide; used for negative control was a peptide sequence lacking intracellular transferability (SEQ ID NO:57 in the sequence listing).

[4] = system: HeLa cells; experiment: Confocal microscopic analysis of intracellular translocation of synthetic peptides in HeLa cells; conditions: confocal microscopic analysis
Description: as §1
In HeLa cells as with CHO cells, intracellular translocation experiments of synthetic peptides of modified PTD sequences were performed by confocal microscopic analysis.

[5] = 50 μM, 25 μM, 12.5 μM and 6.5 μM

KSH2-3: KSH2 with one of the two cysteines substituted with alanine (WKARRQCFRVLHHWN; Designed peptide to act as PTD(Protein Transduction Domain))
capability of intracellular translocation compared with KSH2 [1]: accentuated

KSH1-12: alanine substitution form of KSH1-1 (RAWMRWYSPTTRRYG; Designed peptide to act as PTD(Protein Transduction Domain))
intracellular translocation in Jurkat cells as compared to that of SEQ ID NO:37 [2]: better intracellular translocation | contribution of the alanine-substituted amino acid to the intracellular translocation [3]: minor contribution

KSH1-16: alanine substitution form of KSH1-1 (RLWMRAYSPTTRRYG; Designed peptide to act as PTD(Protein Transduction Domain))
intracellular translocation in HeLa cells compared with CHO cells [4]: slightly higher

KSH1-21: alanine substitution form of KSH1-1 (RLWMRWYSPTARRYG; Designed peptide to act as PTD(Protein Transduction Domain))
intracellular translocation in Jurkat cells as compared to that of SEQ ID NO:37 [2]: better intracellular translocation

KSH2-4: KSH2 with one of the two cysteines substituted with alanine (WKCRRQAFRVLHHWN; Designed peptide to act as PTD(Protein Transduction Domain))
capability of intracellular translocation compared with KSH2 [1]: accentuated

KSH2-2: KSH2 with two cysteines substituted with tryptophan (WKWRRQWFRVLHHWN; Designed peptide to act as PTD(Protein Transduction Domain))
intracellular translocation compared with KSH2 ([1]; 12.5 μM): higher intracellular translocation efficiency than KSH2 | intracellular translocation compared with KSH2 ([1]; 25 μM): higher intracellular translocation efficiency than KSH2 | intracellular translocation compared with KSH2 ([1]; 50 μM): higher intracellular translocation than KSH2

KSH1-8: tryptophan cluster form with lysine substituted with arginine (RLWMRWYSPWTRRYG; Designed peptide to act as PTD(Protein Transduction Domain))
intracellular translocation in Jurkat cells as compared to that of SEQ ID NO:37 [2]: better intracellular translocation | intracellular translocation in HeLa cells (modified peptides with better translocation) [4]: better intracellular translocation | intracellular translocation compared with KSH1 (in words) [3, 5]: clearly accentuated intracellular translocation | intracellular translocation (in words) ([3]; at 25 μM or less): accentuated | intracellular translocation (in words) ([3]; at 50 μM): decreased

KSH1-14: alanine substitution form of KSH1-1 (RLWARWYSPTTRRYG; Designed peptide to act as PTD(Protein Transduction Domain))
intracellular translocation in Jurkat cells as compared to that of SEQ ID NO:37 [2]: better intracellular translocation | contribution of the alanine-substituted amino acid to the intracellular translocation [3]: minor contribution

KSH1-33: 13th arginine substituted with alanine and 10th threonine substituted with arginine (RLWMRWYSPRTRAYG; Designed peptide to act as PTD(Protein Transduction Domain))
intracellular translocation in Jurkat cells as compared to that of SEQ ID NO:37 [2]: better intracellular translocation | intracellular translocation in HeLa cells (modified peptides with better translocation) [4]: better intracellular translocation | intracellular translocation compared with KSH1 (in words) [3, 5]: clearly accentuated intracellular translocation | intracellular translocation compared with KSH1-1 (in words) [3, 5]: nearly equivalent or more than KSH1-1

KSH1-18: alanine substitution form of KSH1-1 (8th serine) (RLWMRWYAPTTRRYG; Designed peptide to act as PTD(Protein Transduction Domain))
intracellular translocation in Jurkat cells as compared to that of SEQ ID NO:37 [2]: better intracellular translocation | intracellular translocation in HeLa cells (modified peptides with better translocation) [4]: better intracellular translocation | intracellular translocation compared with KSH1 (in words) [3, 5]: clearly accentuated intracellular translocation

KSH1-20: alanine substitution form of KSH1-1 (RLWMRWYSPATRRYG; Designed peptide to act as PTD(Protein Transduction Domain))
intracellular translocation in Jurkat cells as compared to that of SEQ ID NO:37 [2]: better intracellular translocation | intracellular translocation in HeLa cells (modified peptides with better translocation) [4]: better intracellular translocation | contribution of the alanine-substituted amino acid to the intracellular translocation [3]: minor contribution

KSH2-1: KSH2 with two cysteines substituted with alanine (WKARRQAFRVLHHWN; Designed peptide to act as PTD(Protein Transduction Domain))
intracellular translocation compared with KSH2 ([1]; 25 μM): remarkably decreased intracellular translocation | intracellular translocation compared with KSH2 ([1]; 50 μM): higher intracellular translocation than KSH2
